Reference: patent US4276286A, “Process for decreasing ammonia concentration in domestic animals or fowls” (Kumiai Chemical Industry Co., Ltd., priority 1975, dated 1981)

Key:
[1] = Remaining activity of antibiotics in excrement of chickens (microbial quantitative method); details: 10 μg/g added to chicken excrement, room temperature
Protocol: (§1) The rise and fall in the activity of the multhiomycin excreted without absorption in the interior of the animal body was compared with the activity of other antibiotics, such as thiopeptin and thiostrepton.
Multhiomycin, thiopeptin and thiostrepton were respectively added to the excrement of chickens bred with the feed containing no antibiotics in a concentration of 10 μg/g. The excrement was preserved under room temperature condition and the remaining potency of each antibiotic in excrement was measured at different time intervals with a microbal quantitative method.

[2] = Behavior of antibiotics in soil (microbial quantitative method); details: 10 μg/g added to soil, room temperature
Protocol: as §1
To soils (collected in Kikukawa-cho, Ogasa-gun, Shizuoka-ken, Japan) which were confirmed to have no anti-antibiotic activity were respectively added multhiomycin, thiopeptin and thiostrepton, each containing 10 μg/g concentration of each antibiotic. The soils were preserved under room temperature condition, and the remaining potencies in soils of each antibiotic were measured at different time intervals according to the microbal quantitative method.

mice = assay: Acute toxicity in mice; assay type: in vivo, mouse; details: injection into abdominal cavity; for LD50 in words: mice, compared with multhiomycin
Protocol: Acute toxins of multhiomycin, thiopeptin and thiostrepton administered to mice, were measured by injection of each drug into the abdominal cavities of the mice.

[3] = test system: ammonia (NH3-N) in contents of the colon; assay: Ammonia concentration in contents of the colon of chickens (modified Fujii-Okuda method); assay type: in vivo, chicken; details: after 8 weeks, control 155
Protocol: Chickens just after hatching were divided into 5 groups, each consisting of 10 chickens. Diets containing 2.5 ppm or 5.00 ppm of multhiomycin were given to two groups, respectively, and diets containing 2.5 ppm or 5.00 ppm of thiopeptin were given to other two groups (comparative groups), respectively. A medicament-free diet was given to the remaining one group (control group). After 8 weeks, with respect to each group, the ammonia concentrations in the contents of the colon were determined according to a modification of the method of Fujii and Okuda, described hereinafter.
(§2) A deproteinizing solution was added to the sample to deproteinize the sample and remove coloration-inhibiting components therefrom and simultaneously deactivate enzymes for preventing formation of ammonia during standing. The supernatant was separated and a coloring solution containing phenol and a nitroprusside salt was added thereto. Then, an alkaline solution was added to the mixture to make it alkaline, and a coloring solution containing sodium hypochlorite was further added to effect oxidation and form indophenol showing a blue color. The absorbance of this color at 630 mμ was measured to determine the ammonia nitrogen concentration. This measurement method is expressed by the following reaction formula: [drawing 1]
(§3) Incidentally, the nitroprusside salt acts as a catalyst in the above reaction.

[4] = test system: ammonia (NH3-N) in portal blood; assay: Ammonia concentration in portal blood of pigs (modified Fujii-Okuda method); assay type: in vivo, pig; details: 10 ppm in diet, after 2 months; for NH3-N in portal blood: control 6.80
Protocol: as §2, §3
Young pigs just after weaning were divided into 3 groups, each consisting of 6 pigs. Diets containing 10 ppm of multhiomycin were given to one group, diets containing 10 ppm of thiopeptin as the comparative medicament were given to another group, and a medicament-free diet was given to the remaining one group (control group). After 2 months, with respect to each group, the ammonia concentrations in portal blood were determined according to the modified Fujii-Okuda method.

ammonia in excrement = assay: Ammonia concentration in excrement of chickens (Kitagawa's vacuum gas detector); assay type: in vivo, chicken
Source text: The tests were made on commercially available chickens for exclusive use as broilers (kind: Hubbard). 150 Chickens which were just hatched (male: 75, female: 75) were divided into 3 groups, each consisting of 50 chickens. Basal diets (containing no antibiotics, see Tables 6 and 7) were given to one group, and diets containing 2.5 ppm or 10 ppm of multhiomycin were given to the other two groups. The feed was constantly supplied to each group with water for 8 weeks from the hatching. Each group was bred in one windless cage (1.8×5.4×2.7 m, 9.7 m^2 per group), and each cage was kept warm by circulating warm water under the floor until the chickens were two weeks old. Further, the floor were covered with wood chips in a depth of about 3 cm.
About 6 or 8 weeks from the beginning of the test, the ammonia concentration in excrement was measured in each group. The ammonia concentrations in the excrement were measured with Kitagawa's vacuum gas detector and the moisture content therein was measured with the hot-air drying method whereby 2 kg weight of excrement (containing chips) was treated at 100°±2° C. for 24 hours to measure its moisture content.

Acidity = assay type: physicochemical
ammonia = assay: Ammonia concentration in the animal's body, intestine and blood or excrements (general statement); assay type: in vivo; details: compared with untreated animals
bacteria = assay: In vitro action on bacteria; assay type: cell-based
[5] = Acute toxicity (general statement); assay type: in vivo; details: in comparison with other antibiotics
[6] = in vivo

Compound	Remaining amount in excrement after 5 days [1]	Remaining ratio in soil after 60 days [2]	Acute toxicity LD50 (mice; male mouse)	LD50 in words (mice)	NH3-N in contents of colon ([3]; 2.5 ppm in diet)	NH3-N in contents of colon ([3]; 5.0 ppm in diet)	NH3-N in portal blood, value in parentheses (difference from control) [4]	NH3-N in portal blood [4]	Acute toxicity LD50 (mice; female mouse)	Ammonia concentration in excrement (ammonia in excrement; 2.5 ppm in diet, 6 weeks of age, control 25.5)	Ammonia concentration in excrement (ammonia in excrement; 2.5 ppm in diet, 8 weeks of age, control 29.7)	Ammonia concentration in excrement (ammonia in excrement; 10 ppm in diet, 6 weeks of age, control 25.5)	Ammonia concentration in excrement (ammonia in excrement; 10 ppm in diet, 8 weeks of age, control 29.7)	Deaths (mice; mice, 4,000 mg/kg)	Acidity (Acidity)	Ammonia in excrement of treated animals, in words (ammonia)	Action on bacteria (bacteria)	Acute toxicity in words [5]	Amount remaining in internal organs or muscles, in words [6]	Excretion [6]
Thiostrepton	43%	44%	85 mg/kg	small values of LD50	–	–	–	–	–	–	–	–	–	–	–	–	–	–	–	–
Thiopeptin	52%	41%	780 mg/kg	small values of LD50	120 μg/g of wet matter	100 μg/g of wet matter	-0.8 µg/mL	6.00 µg/mL	660 mg/kg	–	–	–	–	–	–	–	–	–	–	–
C=C(NC(=O)c1csc(-c2nc3c(cc2O)-c2nc(cs2)C(=O)NC(C(C)O)C(=O)NC(=CC)c2nc(cs2)C(=O)NC2CC(O)C(=O)OCc4cccc5[nH]c(c(C)c45)C(=O)SCC(NC(=O)c4csc2n4)c2nc-3cs2)n1)C(N)=O (stereo not drawn) [Multhiomycin]	–	–	> 4,000 mg/kg	–	60 μg/g of wet matter	46 μg/g of wet matter	-3.36 µg/mL	3.44 µg/mL	> 4,000 mg/kg	9.8 ppm	11.2 ppm	9.0 ppm	10.0 ppm	did not cause a single death	slightly acidic	very small amounts of ammonia	astonishing action on bacteria	low degree of acute toxicity	so little as to be not perceptible in a recognizable amount	completely excreted
